{
  "source": "patent US6057359A",
  "about": "“Spontaneously dispersible concentrates comprising esters of baccatin-III compounds having antitumor and antiviral activity” (Marigen S.A., priority 1997, dated 2000)",
  "key": {"[1]": {"tested_on": "Py6 cells (Virus transformed 3T3 mouse-fibroblasts)", "test": "Test of cell toxicity / cytotoxicity of MARIGENOL concentrates on Py6 cells (plaque assay, serial dilution)", "format": "cell-based", "conditions": "for in dilution active up to 1: (microemulsion ME 1:100): dilution of ME 1:100, given in Mio.", "method": "A biological assay system using microtiter plates and serial dilutions has been developed. Batches of 10^4 tumour cells per ml were set up in culture medium RPMI 1640 and inactivated with 10% of fetal calf serum (GIBCO); they are spread at a density low enough to enable them to grow during the assay, in non-confluent monolayers. Samples are added after 6 to 24 hours, with 100 μl per row, to which 100 μl of medium are added in the first well. Half of this mixture is withdrawn, transferred into the next well and again treated with 100 μl of medium, etc.\n[…] They are then stained and fixed using 0.1% crystal violet (Fluka, Buchs) in a solution of 70% of methanol, 1% of formaldehyde and 29% of water. The samples are evaluated under the microscope, magnification 300×. The greatest cytotoxic dilution is determined. The samples can also be evaluated quantitatively by means of scanning and absorption measurement in a spectrophotometer.\nN.B.: On the subject of the eternalized Py6-cells cf.: \"Biochemistry\", Coordinating Editor Geoffrey L. Zubay, Addison-Wesley Publishing Company, 1983, p.1079."}, "[2]": {"test": "Micellar size by dynamic light scattering", "format": "physicochemical", "conditions": "aqueous emulsion 1:100 of 1%-concentrate; DLS", "source_text": "[Measurement conducted with QLS=quasi-elastic, dynamic light scattering; tests performed at the Federal Institute for Technology, Zurich, Institute for Polymers (Prof. Dr. Pier Luigi LUISI and Prof. Dr. Peter SCHURTENBERGER)]. See: \"Mode-selective dynamic light scattering; theory versus experimental realization\", Thomas Gisler, et al., Applied Optics/Vol. 34, No. 18/Jun. 20, 1995, pp. 3546-3553.\nMeasurement conducted with aqueous emulsions 1:100 (CMC-marginal value for a homogenous spreading of the surfactants), prepared from the 1%-concentrates. Method: dynamic light scattering (DLS) in 3 angular positions each (60°, 90° and 120°), and with 10 single measurements taken each time. The instrument is a specially equipped \"Fiberoptic Spectrometer\" of the Institute for Polymers. Description of the method and the instrument, see: \"Mode-selective dynamic light scattering: theory versus experimental realization\". Thomas Gisler et al., Applied Optics/Vol. 34, No. 18/Jun. 20, 1995."}, "[3]": {"tested_on": "Herpes-Virus (Herpes Simplex, HSV)", "test": "Antiviral/virucidal efficacy against HSV, plaque reduction in VERO cells", "format": "cell-based", "conditions": "compared to simple medium, 2880 min", "method": "(§1) The antiviral/virucidal efficacy against HSV of an aqueous microemulsion prepared with appropriate MARIGENOL®-concentrates was assessed on a confluent monolayer culture of VERO cells (i.e. \"African green monkey kidney cells\"). The host cells were pretreated during 3 h at 4° C. with an inventive microemulsion or with culture medium alone and then infected with HSV at a constant dose of 10^4 plaque forming units (PFU). After virus absorption during 1 h, and subsequent addition of 2% methylcellulose in order to limit virus spreading, cells were cultured in MEM medium+2% foetal calf serum for 48 h, then fixed and stained with 1% crystal violet in methanol. The reduction of viral titre was expressed as percent reduction of plaques of lysis observed in pre-treated cells, compared to controls.\nInfection was also detected by IFA at 24 h after inoculation, using a Mab specific for a glycoprotein common to HSV-1/HSV-2 (clone FQ 12, Argene Biosoft, BIOLINE, Torino).\nThe following test substances were assessed as concentrates in aqueous dilution (starting with a microemulsion 1:100): […]"}, "VERO cells": {"tested_on": "VERO cells", "test": "Cell lysis in VERO cell layers", "format": "cell-based, African green monkey", "conditions": "dilution 1:1'000; plaque reduction table", "method": "as §1"}, "[4]": {"tested_on": "HIV isolates from patients (strains 21/4 and 4/5)", "test": "Effect on HIV infectivity, residual HIV titre (direct antiviral efficacy)", "format": "cell-based", "conditions": "mean titre of 2 strains, 3 h, +4° C.", "method": "Aliquote amounts of two HIV isolates from patients (strains 21/4 and 4/5) resuspended in complete RPMI medium at a titre of 300 CCID50 /ml were incubated during 3 hours, +4° C. with MARIGENOL®-concentrate, in the form of an aqueous microemulsion, at concentrations ranging from 10^-2 to 10^-5 in complete medium, as well as with (\"empty\") carrier concentrate and with medium alone as controls.\nAfter pre-incubation, residual HIV titre was assessed by the CCID50 method (Cell-culture infecting dose 50%). Briefly, serial twofold dilutions were prepared from each of the six virus suspensions, and 200 μl of each dilution were incubated for 90 minutes with MT-4 cell pellets prepared as stated before (see 7.1). At the end of incubation, pellets were brought to initial cell concentration by adding appropriate amounts of complete RPMI medium to each tube, whose content was then distributed into 8 wells of a flat-bottom microtitre plate in 200 μl volumes, each vertical row coresponding to a dilution. After 5 days of incubation, cell viability was assessed by the MTT test as stated above, and the HIV titre was expressed as the reciprocal of that dilution which infects 4 out of 8 wells (50%) in a row. A well was considered infected when its O.D. readout at 550 nm was lower than the average readout of 8 control wells minus 2.8 times the standard error of the mean (lower 95% confidence limit)."}, "human CMV-strain AD169": {"tested_on": "human CMV-strain AD169", "test": "Virucidal efficacy on human cytomegalovirus (immunofluorescence)", "format": "cell-based", "conditions": "control 15'000", "method": "The assay was conducted with human, embryonic Lung Fibroblasts as host cells, which were then infected with the human CMV-strain AD169.\nThe virus strain was incubated during 4 h at +4° C. with varying concentrations of the test substance C16:0 -β-Sitosteryl ester, formulated as a 1%-concentrate and diluted to aqueous microemulsions 10^-3, 10^-4 and 10^-5. It was subsequently inoculated on monolayers of human embryonic lung fibroblasts (which are very susceptible to the CMV-virus). These host cells were grown in shell vials in minimal essential medium (MEM, GIBCO, Life Technologies), containing 10% fetal calf serum. A confluent culture was raised with 120,000 cells per shell-vial. The infection was effected by means of centrifugation during 45 minutes at 1'500 rpm at RT. Thereafter, the injection-suspension was eliminated and 1 ml medium MEM+2% FCS was added (same medium as before). The infected cell culture was maintained during 20 h at 37° C., in a 5%-CO2 -atmosphere. […]\nQuantification of the virucidal effect was measured with an immunofluorescence assay. […]\nThis is followed by 3 washing operations with PBS and a second incubation with the fluorescence-marked antibody IgG goat anti-IgG mouse. […]\nThe number of IEA-positive cells was recorded. The nuclei which were positive against the CMV-specific antigen were counted by means of the fluorescence microscope, magnification 25×, in aqueous phase."}, "HIV strain III B": {"tested_on": "HIV strain III B", "test": "Protective effect on MT-4 host cells against HIV infection (MTT)", "format": "cell-based", "conditions": "stock ultramicroemulsions, 10^-3 to 10^-4, concentration not stated", "method": "MT4-cells (an immortalized T-cell line highly sensitive to HIV cytopathoge-nic effect, CPE) of a 24 h-old culture were suspended at a concentration of 2×10^5 /ml, divided into 1.2 ml aliquotes in polypropylene tubes, and pelleted by centrifugation. Pellets were either infected with 200 μl of a stock solution of HIV strain III B (Titre: 600 CCID50 /ml), or mock-infected with plain medium, for 90 min. at 37° C, upon which 1 ml of plain medium was added to each tube, restoring initial cell concentration and bringing HIV concentration to 100 CCID50 /ml. [CCID50 /ml=50% cell culture infective dose].\n100 μl volumes of the MARIGENOL®-Concentrates to be tested, diluted to aqueous microemulsions 10^-3 and then further diluted from 10^-3 to […] in RPMI 1640 medium, or of plain medium, were added in triplicate to flat-bottom, 96-well microtitre plates. […]\nCultures were incubated at 37° C., in a humified atmosphere of 5% CO2 +95% air. Five days after infection, 100 μl of supernatant were removed from each well, and cell viability was assessed by reduction of a methyl-tetrazolium salt (MTT, Sigma, 25 μl/well of a 5 mg/ml solution) in a 2-h incubation test, followed by solubilization with 100 μl DMSO/well and photometric readout of the optical density at 550 nm. Residual cell viability was expressed as percent difference from HIV CPE-control cultures mean readout, considered as zero."}},
  "data": [
    {"smiles": "C=CCCCCCCCCC(=O)Oc1cc(OC(=O)CCCCCCCCC=C)c2c(=O)c(OC(=O)CCCCCCCCC=C)c(-c3ccc(OC(=O)CCCCCCCCC=C)c(OC(=O)CCCCCCCCC=C)c3)oc2c1", "note": "[QUERCETIN-PENTA-UNDECENOATE, Quercetin-penta-10-undecenoate]", "values": [
      {"measurement": "in dilution active up to 1: (calculated on active substance content, A.S.)", "setting": "[1]; 24 h exposure", "result": 25.6, "unit": "Mio."},
      {"measurement": "in dilution active up to 1: (calculated on active substance content, A.S.)", "setting": "[1]; 48 h exposure", "result": 100, "unit": "Mio."},
      {"measurement": "in dilution active up to 1: (microemulsion ME 1:100)", "setting": "[1]; 48 h exposure", "result": 1, "unit": "Mio."},
      {"measurement": "in dilution active up to 1: (calculated on active substance content, A.S.)", "setting": "[1]; 72 h exposure", "result": 200, "unit": "Mio."},
      {"measurement": "in dilution active up to 1: (microemulsion ME 1:100)", "setting": "[1]; 72 h exposure", "result": 2, "unit": "Mio."},
      {"measurement": "MICELLAR SIZE in nm", "setting": "[2]", "result": "2-3 nm"},
      {"measurement": "Percent reduction of plaques in VERO cell monolayers", "setting": "[3]; dilution 1:10'000", "result": 48, "unit": "%"},
      {"measurement": "Percent reduction of plaques in VERO cell monolayers", "setting": "[3]; dilution 1:100'000", "result": 0, "unit": "%"},
      {"measurement": "Cell-Lysis", "setting": "VERO cells", "result": "Cell-Lysis"}
    ]},
    {"smiles": "CCCCCCCCCCCCCCCC(=O)O[C@H]1CC[C@@]2(C)C(=CC[C@H]3[C@@H]4CC[C@H]([C@H](C)CC[C@@H](CC)C(C)C)[C@@]4(C)CC[C@@H]32)C1", "note": "[β-SITOSTERYL-PALMITATE, 3β-Stigmast-5-en-3-palmitate]", "values": [
      {"measurement": "RESIDUAL HIV TITRE (CCID50)", "setting": "[4]; concentrate 1'000 ppm, active substance 10 ppm", "result": 2, "unit": "CCID50"},
      {"measurement": "RESIDUAL HIV TITRE (CCID50)", "setting": "[4]; concentrate 10 ppm, active substance 0.1 ppm", "result": 120, "unit": "CCID50"},
      {"measurement": "RESIDUAL HIV TITRE (CCID50)", "setting": "[4]; concentrate 50 ppm, active substance 0.5 ppm", "result": 76, "unit": "CCID50"},
      {"measurement": "RESIDUAL HIV TITRE (CCID50)", "setting": "[4]; concentrate 100 ppm, active substance 1 ppm", "result": 50, "unit": "CCID50"},
      {"measurement": "Number of the positive nuclei (anti P-72 antigens)", "setting": "human CMV-strain AD169; microemulsion 1:1'000 = 1'000 ppm concentrate", "result": 0},
      {"measurement": "Number of the positive nuclei (anti P-72 antigens)", "setting": "human CMV-strain AD169; microemulsion 1:10'000 = 100 ppm concentrate", "result": 2},
      {"measurement": "Percent reduction of plaques in VERO cell monolayers", "setting": "[3]; dilution 1:10'000", "result": 24, "unit": "%"},
      {"measurement": "Percent reduction of plaques in VERO cell monolayers", "setting": "[3]; dilution 1:100'000", "result": 0, "unit": "%"},
      {"measurement": "Cell-Lysis", "setting": "VERO cells", "result": "Cell-Lysis"}
    ]},
    {"smiles": "CCCCCC(=O)O[C@H]1CC[C@@]2(C)C(=CC[C@H]3[C@@H]4CC[C@H]([C@H](C)CC[C@@H](CC)C(C)C)[C@@]4(C)CC[C@@H]32)C1", "note": "[β-Sitosteryl-Caproylate]", "values": [
      {"measurement": "protective action on MT-4 cells against HIV", "setting": "HIV strain III B", "result": "very remarkable results"},
      {"measurement": "protective action on MT-4 cells against HIV", "setting": "HIV strain III B; listed as β-Sitosterypl-Caproylate", "result": "Similar, though less remarkable results"}
    ]},
    {"smiles": "CCCCCCCC/C=C\\CCCCCCCC(=O)Oc1ccc2c(c1)CC[C@@H]1[C@@H]2CC[C@]2(C)[C@@H](OC(=O)CCCCCCC/C=C\\CCCCCCCC)CC[C@@H]12", "note": "[β-ESTRADIOL-DI-OLEATE]", "values": [
      {"measurement": "MICELLAR SIZE in nm", "setting": "[2]", "result": "2-3 nm"}
    ]},
    {"smiles": "CCCCCCCCCCCC(=O)O[C@H]1CC[C@@]2(C)C(=CC=C3[C@@H]4CC[C@H]([C@H](C)/C=C/[C@H](C)C(C)C)[C@@]4(C)CC[C@@H]32)C1", "note": "[C12:0 -ERGO ESTER (ERGOST. LAURATE), (3β, 22E)-Ergosta-5,7,22-triene-3-ol-laurate]", "values": [
      {"measurement": "Percent reduction of plaques in VERO cell monolayers", "setting": "[3]; dilution 1:10'000", "result": 62, "unit": "%"},
      {"measurement": "Percent reduction of plaques in VERO cell monolayers", "setting": "[3]; dilution 1:100'000", "result": 0, "unit": "%"},
      {"measurement": "Cell-Lysis", "setting": "VERO cells", "result": "Cell-Lysis"}
    ]}
  ]
}
